“Also recorded” adds a separate entry of the source. Counter-ions that a name gives are not always drawn.
Assays:
M. pneumoniae [1] = assay: Mycoplasma overlay assay: binding of [3H]-M. pneumoniae to glycolipids on thin layer chromatograms; parameters: species or system Mycoplasma pneumoniae strain M129; settings: for binding of M. pneumoniae to glycolipid (in words): thin layer chromatogram overlay; for Binding (ability to bind M. pneumoniae): Table I, class by amount of lipid bound
Method: (§1) Virulent M. pneumoniae strain M129, passage 5-15, were grown and metabolically labelled with [^3 H]palmitic acid, 12-17 Ci/mole, as described by Chandler et al. in Infect. Immun. 37: 942, 1982. The organisms were passed four times through a 26 gauge needle and suspended to approximately 10^7 cpm/ml of degassed RPMI 1640 medium containing 1% bovine serum albumin and 25 mM HEPES, pH 7.3.
M. pneumoniae were bound to glycolipids separated on thin-layer chromatograms as described in detail for other bacteria by Krivan et al., Proc. Natl. Acad. Sci. 85: 6157-6161, 1988, and Krivan et al., Arch. Biochem. Biophys. 260:493-496, 1988. Briefly, glycolipids were separated by thin-layer chromatography on aluminum-backed silica gel high-performance plates developed with chlooform:methanol:0.25% CaCl2 in water (60:35:8). After chromatography, the plates were coated with 0.1% polyisobutylmethacrylate, soaked in 0.05 M Tris-HCl, pH 7.6, containing […] sodium chloride, 5 mM CaCl2, 0.2 mM phenylmethane-sulfonyl fluoride, and 1% bovine serum albumin (TBS-BSA) and incubated for three hours at 25° C. with 60 μl/cm^2 of [^3 H]-labelled M. pneumoniae, approximately 10^7 cpm/ml of RPMI-BSA. The plates were gently washed five times in 0.01 M sodium phosphate, pH 7.2, containing 0.15 M sodium chloride (PBS) to remove unbound organisms, dried, and exposed for 24 hours to Ultrofilm ^3 H (2208-190) high speed film.
To obtain the results shown in FIG. 1, glycolipids were chromatographed on aluminum-backed silica gel HPTLC plates developed in chloroform/methanol/0.25% CaCl2 in water, 60:35:8. The plates were coated with plastic, soaked in Tris-BSA, and incubated for three hours at 25° C. with [^3 H]-palmitate-labelled M. pneumoniae suspended in RPMI 1640 containing 1% BSA and 25 mM HEPES, pH 7.3, as described above (Panel A), or sprayed with orcinol reagent to identify glycolipids (Panel B). Lane a, acidic glycolipid standards sulfatide (0.5 μg), GM3 (2 μg), GM2 (2 μg), GD1a (2 μg), GD1b (2 μg), GT1b (2 μg); lane b, neutral standards galactosyl ceramide (4 μg), lactosylceramide (4 μg), globotriaosylceramide (2 μg), c2(0.5 μg). and c3 (o.1 μg); lane d, seminolipid (2 μg); lane e, cholesterol 3 -sulfate (2 μg); lane f, human trachea acidic glycolipids from 100 mg wet weight […]; lane h, α2-3sialylparagloboside (2 μg); lane 1, I-active monosialylganglioside from bovine erythrocytes (2 μg).

M. pneumoniae [2] = assay: Solid-phase binding of [3H]-M. pneumoniae to purified glycolipids immobilized in microtiter plates; parameters: species or system Mycoplasma pneumoniae strain M129; settings: microtiter plate; up to 10 μg per well
Method: as §1
(§2) The binding of M. pneumoniae to purified glycolipids immobilized in microtiter plates was measured as described by Krivan et al. in Proc. Natl. Acad. Sci., op. cit. Purified glycolipids were serially diluted in 25 μl of methanol containing 0.1 μg each of the auxiliary lipids cholesterol and phosphatidylcholine. After the solutions were dried by evaporation, the wells were filled with TBS-BSA, emptied after one hour, rinsed with RPMI-BSA, and incubated with 25 μl of [^3 H]-M. pneumoniae, approximately 10^7 cpm/ml RPMI-BSA. After incubation for two hours at 37° C., unless otherwise stated, the wells were washed five times with saline and bound M. pneumoniae was quantified by scintillation counting in Aquasol. For inhibition studies, various polysaccharides were serially diluted in […] of [^3 H]-M. pneumoniae.
To obtain the results shown in FIG. 2, lipids in […] each of the auxiliary lipids cholesterol and phosphatidylcholine were evaporated in flat bottom wells of polyvinylchloride microtiter plates. The wells were blocked with 1% albumin for one hour, washed twice with RPMI-BSA, and incubated at 25° C. with 25 μl of [^3 H]-M. pneumoniae, approximately […]. After two hours, the wells were washed five times with saline, cut from the plate, and bound radioactivity was quantified in a scintillation counter. In control experiments, organisms were incubated with auxiliary lipids only to correct for nonspecific binding, typically <1% of the total radioactivity added. M. pneumoniae binding was determined in RPMI-BSA for sulfatide ( .circle. ), lactosylceramide, paragloboside, and cholesterol sulfate, ceramide trihexoside, globoside, GM1, GM2, or GM3 ( .largecircle.).
Binding of [^3 H]-M. pneumoniae was determined in RPMI-BSA for two hours at 4° C., 25° C. ( .circle. ), 37° C., and at 37° C. in BSA without RPMI (Δ).

M. pneumoniae [3] = assay: M. pneumoniae adhesion to immobilized glycoproteins adsorbed on plastic; type: binding, Mycoplasma pneumoniae strain M129; settings: for M. pneumoniae adhesion to immobilized glycoprotein (in words): adsorbed on plastic; for amount of glycoprotein coated that promotes adhesion: coated wells; for Relative binding activity: relative to fetuin = 1.0, from amount for half maximal binding, mean of 2 or 3 experiments
Method: Glycoproteins dissolved in 0.01 M sodium phosphate buffer, pH 7.4, containing 150 mM NaCl, 1 mM CaCl2, and 0.01% NaN3 were adsorbed onto plastic polyvinylchloride […] microtiter plates by incubation for 16 hours at 4° C. The unbound proteins were removed, and the wells were filled with tris-BSA and incubated for 30 minutes at room temperature. The wells were rinsed with RPMI1640 containing 25 mM HEPES, pH 7.3, and 1% bovine serum albumin. M. pneumoniae strain M129 labelled with [^3 H]-palmitate were dispersed in RPMI-BSA by passing four times through a 26 gauge needle, and 50 μl of the suspension was applied to the wells. After incubation for 60 minutes at 37° C., the wells were washed five times with saline and the labelled M. pneumoniae bound to the proteins were quantified by scintillation counting in Aquasol. […]

[4] = test system: M. pneumoniae binding to sulfatide; assay: Inhibition of M. pneumoniae binding to sulfatide adsorbed on plastic; parameters: species or system Mycoplasma pneumoniae strain M129; settings: for inhibition of binding to sulfatide at 100 μg/ml (in words): sulfatide in microtiter plates
Method: as §1, §2
To obtain the results shown in FIG. 4, polysaccharides were serially diluted in 25 μl of RPMI-BSA in microtiter wells previously coated with 1 μg of purified sulfatide. Binding was determined after incubation of two hours at 37° C. with 25 μl of [^3 H]-M. pneumoniae with the indicated concentration of dextran ( .circle. ) or dextran sulfate.

Molecule | binding of M. pneumoniae to glycolipid (in words) (M. pneumoniae [1]) | Binding (ability to bind M. pneumoniae) (M. pneumoniae [1]) | also measured
CC(C)CCC[C@@H](C)[C@H]1CC[C@H]2[C@@H]3CC=C4C[C@@H](OS(=O)(=O)O)CC[C@]4(C)[C@H]3CC[C@]12C [cholesterol sulfate, cholesterol 3 -sulfate] | does not bind | – | binding of M. pneumoniae to immobilized lipid (in words) (M. pneumoniae [2]): no binding was detected
Alpha2-3-sialylparagloboside (NeuGc) | – | - (no binding to 4 μg of lipid) | –
Asialo GM1 | – | - (no binding to 4 μg of lipid) | –
Bovine Fetuin: major protein in fetal calf serum | – | – | M. pneumoniae adhesion to immobilized glycoprotein (in words) (M. pneumoniae [3]): promote dose-dependent and saturable adhesion; amount of glycoprotein coated that promotes adhesion (M. pneumoniae [3]): less than 10 ng; Relative binding activity (M. pneumoniae [3]): 1.0
Bovine serum Albumin: protein | – | – | Relative binding activity (M. pneumoniae [3]): < 0.01
GD1^b | No binding was detected | - (no binding to 4 μg of lipid) | –
GD1a | No binding was detected | - (no binding to 4 μg of lipid) | –
GT1b | No binding was detected | - (no binding to 4 μg of lipid) | –
Galactosyl ceramide-I6-sulfate [Sulfatide Gal(6SO4)β11Cer] | – | +++ (positive binding to less than 0.5 μg) | binding of M. pneumoniae to glycolipid (in words) (M. pneumoniae [1]; listed as 6-sulfate isomer): does not discriminate between galactosyl ceramide I^3 -sulfate and its unnatural 6-sulfate isomer; binding of M. pneumoniae to glycolipid (in words) (M. pneumoniae [1]; listed as isomer of sulfatide in which the terminal sulfate is linked to the 6-position of): bound
Human Transferrin: protein | – | – | M. pneumoniae adhesion to immobilized glycoprotein (in words) (M. pneumoniae [3]): no binding of M. pneumoniae was detected; Relative binding activity (M. pneumoniae [3]): < 0.01
Human platelet thrombospondin: adhesive glycoprotein | – | – | M. pneumoniae adhesion to immobilized glycoprotein (in words) (M. pneumoniae [3]): strongly promote adhesion; amount of glycoprotein coated that promotes adhesion (M. pneumoniae [3]): less than 10 ng; Relative binding activity (M. pneumoniae [3]): 0.7
IV^3 -[3'SO3 GlcA]- nLcOse4Cer [SO4 -Glucuronosylparagloboside] | does not bind | - (no binding to 4 μg of lipid) | –
IV^3 GalnLcOse4Cer [α-Galactosylparagloboside] | – | + (2-4 μg) | binding of M. pneumoniae to glycolipid (in words) (M. pneumoniae [1]; listed as o-galactosylparagloboside): weakly
Lacto-N-triaosylceramide [Lacto- --N-triaosylcer] | weakly | – | –
Lactoisooctaosylceramide [I-active Lacto- isooctaosylcer] | – | - (no binding to 4 μg of lipid) | –
Lactosylceramide [Lactosylcer (CDH)] | weakly | ++ (0.5 to 2 μg) | binding of M. pneumoniae to glycolipid (in words) (M. pneumoniae [1]; listed as lactosylderamide): binds to high amounts; binding of M. pneumoniae to immobilized lipid (in words) (M. pneumoniae [2]): bound weakly
Lactosylceramide-II^3 -sulfate [Lactosylsulfatide] | – | +++ (positive binding to less than 0.5 μg) | binding of M. pneumoniae to glycolipid (in words) (M. pneumoniae [1]; listed as lactosyl sulfatide): bound; binding of M. pneumoniae to glycolipid (in words) (M. pneumoniae [1]; listed as lactosylsulfatide): bound strongly
Paragloboside | weakly | + (2-4 μg) | binding of M. pneumoniae to immobilized lipid (in words) (M. pneumoniae [2]): bound weakly
chondroitin sulfate | – | – | inhibition of binding to sulfatide at 100 μg/ml (in words) [4]: did not inhibit binding
colominic acid | – | – | inhibition of binding to sulfatide at 100 μg/ml (in words) [4]: did not inhibit binding
dextran | – | – | inhibition of binding to sulfatide (in words) ([4]; sulfatide adsorbed on plastic): no effect
fucoidin | – | – | inhibition of binding to sulfatide at 100 μg/ml (in words) [4]: did not inhibit binding
glucosylceramide [Glucosylcer (CMH)] | weakly | + (2-4 μg) | –
heparin | – | – | inhibition of binding to sulfatide at 100 μg/ml (in words) [4]: did not inhibit binding
hyaluronate | – | – | inhibition of binding to sulfatide at 100 μg/ml (in words) [4]: did not inhibit binding
sialyllactofucopentaosyl-(III)-ceramide [Sialylneolactofucopenta-osylcer] | – | - (no binding to 4 μg of lipid) | –
α2-3-sialyl-paragloboside (NeuAc) [Sialylparagloboside] | No binding was detected | - (no binding to 4 μg of lipid) | –
α2-3-sialyllactoneohexaosylceramide [Sialylneolacto-hexaoslycer] | – | - (no binding to 4 μg of lipid) | –
α-Ga121actoisooctaosylceramide [I-active Gal2 - lactoisooctaosylcer] | – | - (no binding to 4 μg of lipid) | –
β-galactosylalkylacylglycerol-I^3 -sulfate [Seminolipid] | bound strongly; also recorded: bound | +++ (positive binding to less than 0.5 μg) | –

Source: patent publication US5089479A, “Adhesion of Mycoplasma pneumoniae and Mycoplasma hominus to sulfatide” (priority 1988, dated 1992)
